Laboratory results from patent publication US11866437B1, “1,2-dioxo-2,3-dihydro-1H-pyrrolo[2,3-c]quinoline-7-carboxylic acid compounds as CK2 inhibitors” (KING FAISAL UNIVERSITY, priority 2023, dated 2024).

Tests used:
PC3 (prostate) = assay: In vitro cytotoxic activity MTT assay, PC3; format: cell-based; details: Homo sapiens, PC-3; PC3 cells, exposed for 96 hours; read-out: IC50, 50% inhibition of cell proliferation, PC3 (prostate)
Method: (§1) Compounds 1-16 were screened for their in vitro cytotoxic activity utilizing a 3-(4,5-dimethyl-thiazol-2-yl)-2,5-diphenyltetrazolium bromide (MTT) assay against selected cancer human cell lines consisting of PC3 (prostate), HCT116 (colon), A375 (melanoma), H1299 (lung), MIAPaCa-2 (pancreas), HL60 (leukemia), MCF7 (breast), MDA-MB-231 (breast) (T. Mosmann, J. Immunol. Meth., 1983, 65, 55-63). The cells were cultured at 37° C. in RMPI1640 medium supplemented with 10% fetal bovine serum, 50 IU/mL penicillin, and 50 μg/mL streptomycin in a 5% CO2 incubator. All cells were sub-cultured 3 times/week by trypsinisation. Viable cells were seeded and allowed to adhere for 12 h before a test drug was added in 96-well plates at an initial density of 1.0×10^5 cells/mL. Tumour cell lines were separately exposed to various concentrations of the tested compounds followed by incubation at a temperature of 37° C. during 96 h inside a medium of fresh RMPI 1640. Cells were subsequently incubated at 37° C. using MTT at 0.5 mg/mL during 4 h. After removal of supernatant, formazan crystals were dissolved in isopropanol and the optical density was measured at 570 nm. CX-4945 was used as a positive control.

HCT116 (colon) = assay: In vitro cytotoxic activity MTT assay, HCT116; format: cell-based; details: Homo sapiens, HCT-116; HCT116 cells, exposed for 96 hours; read-out: IC50, 50% inhibition of cell proliferation, HCT116 (colon)
Method: as §1

A375 (melanoma) = assay: In vitro cytotoxic activity MTT assay, A375; format: cell-based; details: Homo sapiens, A-375; A375 cells, exposed for 96 hours; read-out: IC50, 50% inhibition of cell proliferation, A375 (melanoma)
Method: as §1

H1299 (lung) = assay: In vitro cytotoxic activity MTT assay, H1299; format: cell-based; details: Homo sapiens, NCI-H1299; H1299 cells, exposed for 96 hours; read-out: IC50, 50% inhibition of cell proliferation, H1299 (lung)
Method: as §1

MIAPaCa-2 (pancreas) = assay: In vitro cytotoxic activity MTT assay, MIAPaCa-2; format: cell-based; details: Homo sapiens, MIA PaCa-2; MIAPaCa-2 cells, exposed for 96 hours; read-out: IC50, 50% inhibition of cell proliferation, MIAPaCa-2 (pancreas)
Method: as §1

HL60 (leukemia) = assay: In vitro cytotoxic activity MTT assay, HL60; format: cell-based; details: Homo sapiens, HL-60; HL60 cells, exposed for 96 hours; read-out: IC50, 50% inhibition of cell proliferation, HL60 (leukemia)
Method: as §1

MCF7 (breast) = assay: In vitro cytotoxic activity MTT assay, MCF7; format: cell-based; details: Homo sapiens; MCF7 cells, exposed for 96 hours; read-out: IC50, 50% inhibition of cell proliferation, MCF7 (breast)
Method: as §1

MDA-MB-231 (breast) = assay: In vitro cytotoxic activity MTT assay, MDA-MB-231; format: cell-based; details: Homo sapiens; MDA-MB-231 cells, exposed for 96 hours; read-out: IC50, 50% inhibition of cell proliferation, MDA-MB-231 (breast)
Method: as §1

recombinant human CK2 = target: T1, recombinant human CK2 (Homo sapiens, UniProt P68400); assay: CK2 Kinase Assay (33P-ATP, substrate peptide RRRDDDSDDD); format: biochemical; details: final ATP concentration 15 μM, 10 min at 30° C.; read-out: protein kinase CK2 IC50
T1 construct: purchased Millipore
T1 sequence (P68400 whole entry): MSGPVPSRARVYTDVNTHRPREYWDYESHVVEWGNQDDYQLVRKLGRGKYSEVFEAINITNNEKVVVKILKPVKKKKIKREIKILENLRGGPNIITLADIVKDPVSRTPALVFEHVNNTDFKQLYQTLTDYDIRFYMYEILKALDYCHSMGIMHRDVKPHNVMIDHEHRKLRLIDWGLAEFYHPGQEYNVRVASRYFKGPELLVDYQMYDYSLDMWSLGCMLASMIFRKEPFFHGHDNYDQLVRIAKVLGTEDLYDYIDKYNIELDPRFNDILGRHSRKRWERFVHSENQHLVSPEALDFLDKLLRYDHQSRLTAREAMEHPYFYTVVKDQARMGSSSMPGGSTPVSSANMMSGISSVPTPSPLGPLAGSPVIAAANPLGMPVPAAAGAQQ
T1 sequence (P67870 whole entry partner): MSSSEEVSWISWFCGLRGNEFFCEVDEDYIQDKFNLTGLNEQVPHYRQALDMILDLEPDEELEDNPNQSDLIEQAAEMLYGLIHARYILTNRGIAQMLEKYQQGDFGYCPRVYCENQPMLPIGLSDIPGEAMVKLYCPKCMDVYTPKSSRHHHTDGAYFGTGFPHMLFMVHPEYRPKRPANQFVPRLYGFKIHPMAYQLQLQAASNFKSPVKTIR
Method: CK2 Kinase Assay was conducted using the protocol as described in Pierre F. et al; J. Med. Chem. 2011, 54, 635-654. The tested compounds in aqueous solution were added at a volume of 10 μL to a reaction mixture comprising 10 μL of assay dilution buffer (ADB; 20 mM MOPS, pH 7.2, 25 mM β-glycerol phosphate, 5 mM EGTA, 1 mM sodium orthovanadate, and 1 mM dithiothreitol), 10 μL of substrate peptide (RRRDDDSDDD, dissolved in ADB at a concentration of 1 mM), 10 μL of recombinant human CK2 (RR-holoenzyme, 25 ng dissolved in ADB; Millipore). Reactions were initiated by the addition of 10 μL of ATP solution (90% 75 mMMgCl2, 75 μM ATP (final ATP concentration:15 μM) dissolved in ADB; 10% [γ-33P] ATP (stock 1 mCi/100 μL; 3000 Ci/mmol (Perkin-Elmer) and maintained for 10 min at 30° C. The reactions were quenched with 100 μL of 0.75% phosphoric acid and then transferred to and filtered through a phosphor cellulose filter plate (Millipore). After washing each well five times with 0.75% phosphoric acid, the plate was dried under vacuum for 5 min and, following the addition of 15 μL of scintillation fluid to each well, the residual radioactivity was measured using a Wallac […] counter. The IC50 values were derived from eight concentrations of test inhibitors.

Structure (SMILES): O=C1Nc2c(Nc3cccc(Cl)c3)nc3cc(C(=O)O)ccc3c2C1=O [Compound 1, 4-((3-chlorophenyl)amino)-1,2-dioxo-2,3-dihydro-1H-pyrrolo[2,3-c]quinoline-7-carboxylic acid]
- IC50 (PC3 (prostate)): 900 nM
- IC50 (HCT116 (colon)): 1100 nM
- IC50 (A375 (melanoma)): 2300 nM
- IC50 (H1299 (lung)): 1600 nM
- IC50 (MIAPaCa-2 (pancreas)): 1500 nM
- IC50 (HL60 (leukemia)): 2900 nM
- IC50 (MCF7 (breast)): 5100 nM
- IC50 (MDA-MB-231 (breast)): 3800 nM
- IC50 (recombinant human CK2): 19 nM
